These results are taken from ChEMBL document CHEMBL5325424, “Structural design, synthesis, and anti-Trypanosomatidae profile of new Pyridyl-thiazolidinones” (Eur J Med Chem, 2023).

The nature of data set [1]: Cytotoxicity in BALB/c mouse splenocytes incubated for 24 hrs by [3H]-thymidine based liquid scintillation counter analysis. The class given is toxicity, cell-based, Splenocyte.
In data set [2] the test system is Trypanosoma cruzi. As to the kind of experiment: Antitrypanosomal activity against Trypanosoma cruzi Y trypomastigotes assessed as parasite growth inhibition incubated for 24 hrs by Neubauer chamber based analysis. The format is functional, organism-based.
Data set [3] can be described thus: Cytotoxicity against mouse RAW264.7 cells incubated for 48 hrs by MTT assay. The class given is toxicity, cell-based. For orientation: Formazan colour is commonly taken as a measure of viable cells.
A short description of data set [4]: Selectivity index, ratio of CC50 for mouse RAW264.7 cells to IC50 for Trypanosoma cruzi Y trypomastigotes infected in African green monkey Vero cells. The format is toxicity. Particulars: read-out: Ratio CC50/IC50.
A short description of data set [5]: Selectivity index, ratio of CC50 for mouse RAW264.7 cells to IC50 for Leishmania amazonensis WHOM/00 LTB 0016 promastigotes. Particulars: read-out: Ratio CC50/IC50. The format is toxicity.
In data set [6] the test system is Trypanosoma cruzi. The experiment in a line: Induction of morphological changes in Trypanosoma cruzi trypomastigotes assessed as appearance of rounded body at 2 times IC50 incubated for 24 hrs by SEM analysis. The format is functional, organism-based.
Data set [7] has as its system Leishmania amazonensis. The experiment in a line: Antileishmanial activity against Leishmania amazonensis WHOM/00 LTB 0016 promastigotes assessed as parasite growth inhibition incubated for 72 hrs. The class given is functional, organism-based. The conditions noted are these: WHOM/00 LTB 0016, 72 h.
The test system of data set [8] is Trypanosoma cruzi. The experiment in a line: Induction of morphological changes in Trypanosoma cruzi trypomastigotes membrane assessed as appearance of membrane rupture at 2 times IC50 incubated for 24 hrs by SEM analysis.
For data set [9], the system named is Trypanosoma cruzi. As to the kind of experiment: Induction of apoptosis in Trypanosoma cruzi trypomastigotes assessed as late apoptotic cells at IC50 incubated for 24 hrs by annexin V-FITC/PI staining based flow cytometry (reference value: 2.58 %). The format is functional. Background: In flow cytometry, cells or beads pass a laser one at a time.
Data set [10] deals with Trypanosoma cruzi. The experiment in a line: Induction of apoptosis in Trypanosoma cruzi trypomastigotes assessed as necrotic cells at IC50 incubated for 24 hrs by annexin V-FITC/PI staining based flow cytometry (reference value: 4.05 %). The class given is functional.
Data set [11] relates to Trypanosoma cruzi. As to the kind of experiment: Induction of morphological changes in Trypanosoma cruzi trypomastigotes assessed as appearance of thinned flagellum at 2 times IC50 incubated for 24 hrs by SEM analysis. The format is functional, organism-based.
For data set [12], the system named is Trypanosoma cruzi. The experiment in a line: Induction of morphological changes in Trypanosoma cruzi trypomastigotes assessed as appearance of shortened flagellum at IC50 incubated for 24 hrs by SEM analysis. The class given is functional, organism-based.
The test system of data set [13] is Trypanosoma cruzi. As to the kind of experiment: Induction of apoptosis in Trypanosoma cruzi trypomastigotes assessed as late apoptotic cells at 2 times IC50 incubated for 24 hrs by annexin V-FITC/PI staining based flow cytometry (reference value: 2.58 %). The format is functional.
Data set [14] relates to Splenocyte. The experiment in a line: Immunomodulatory activity in mouse splenocytes assessed as effect on IFN-gamma level at 10 ug/ml incubated for 24 to 96 hrs by flow cytometry. The format is functional, cell-based. The conditions noted are these: dose 10.0 µg/ml, time 24-96 hrs.
Data set [15] deals with Trypanosoma cruzi. As to the kind of experiment: Antitrypanosomal activity against Trypanosoma cruzi Y trypomastigotes infected in African green monkey Vero cells assessed as parasite growth inhibition incubated for 24 hrs by hemocytometry. The format is functional, organism-based.
In data set [16] the test system is Trypanosoma cruzi. The experiment in a line: Induction of morphological changes in Trypanosoma cruzi trypomastigotes assessed as appearance of loss of cytoplasmic content at 2 times IC50 incubated for 24 hrs by SEM analysis. The class given is functional, organism-based.
The test system of data set [17] is Trypanosoma cruzi. As to the kind of experiment: Induction of apoptosis in Trypanosoma cruzi trypomastigotes assessed as early apoptotic cells at IC50 incubated for 24 hrs by annexin V-FITC/PI staining based flow cytometry (reference value: 0.10 %). The class given is functional.
Data set [18] concerns Splenocyte. As to the kind of experiment: Immunomodulatory activity in mouse splenocytes assessed as reduction in IL-10 level at 10 ug/ml incubated for 24 hrs by flow cytometry. The format is functional, cell-based. Particulars: dose 10.0 µg/ml.
Data set [19] relates to Splenocyte. As to the kind of experiment: Immunomodulatory activity in mouse splenocytes assessed as increase in IL-6 level at 10 ug/ml incubated for 48 to 72 hrs by flow cytometry. The format is functional, cell-based. Particulars: dose 10.0 µg/ml, time 48-72 hrs.
Data set [20] relates to Trypanosoma cruzi. The experiment in a line: Induction of apoptosis in Trypanosoma cruzi trypomastigotes assessed as early apoptotic cells at 2 times IC50 incubated for 24 hrs by annexin V-FITC/PI staining based flow cytometry (reference value: 0.10 %). The class given is functional.
In data set [21] the test system is Splenocyte. As to the kind of experiment: Immunomodulatory activity in mouse splenocytes assessed as increase in IL-6 level at 10 ug/ml incubated for 24 hrs by flow cytometry. The class given is functional, cell-based. Particulars: dose 10.0 µg/ml.
The nature of data set [22]: Selectivity index, ratio of CC50 for mouse RAW264.7 cells to IC50 for Leishmania amazonensis WHOM/00 LTB 0016 amastigotes infected in mouse RAW264.7 cells. The format is toxicity, cell-based. Particulars: read-out: Ratio CC50/IC50.
The test system of data set [23] is Leishmania amazonensis. The experiment in a line: Antileishmanial activity against Leishmania amazonensis WHOM/00 LTB 0016 amastigotes infected in mouse RAW264.7 cells assessed as parasite growth inhibition incubated for 24 hrs by panoptic staining based assay. The format is functional, organism-based. The conditions noted are these: WHOM/00 LTB 0016, RAW264.7, 24 h.

The nature of data set [24]: Selectivity index, ratio of CC50 for mouse RAW264.7 cells to IC50 for Trypanosoma cruzi Tulahuen amastigotes infected in mouse L929 cells. The conditions noted are these: read-out: Ratio CC50/IC50. The format is toxicity, cell-based.
The subject of data set [25] is Trypanosoma cruzi. The experiment in a line: Induction of morphological changes in Trypanosoma cruzi trypomastigotes assessed as appearance of contorted body at IC50 incubated for 24 hrs by SEM analysis. The class given is functional, organism-based.
For data set [26], the system named is Trypanosoma cruzi. The experiment in a line: Induction of apoptosis in Trypanosoma cruzi trypomastigotes assessed as necrotic cells at 2 times IC50 incubated for 24 hrs by annexin V-FITC/PI staining based flow cytometry (reference value: 4.05 %). The class given is functional.
Data set [27] has as its system Trypanosoma cruzi. As to the kind of experiment: Antitrypanosomal activity against Trypanosoma cruzi Tulahuen amastigotes infected in mouse L929 cells assessed as parasite growth inhibition measured after 7 days by CPRG/Nonidet based assay. The class given is functional, organism-based. Particulars: L929, 168 h.
The test system of data set [28] is Splenocyte. As to the kind of experiment: Immunomodulatory activity in mouse splenocytes assessed as reduction in IL-6 level at 10 ug/ml incubated for 96 hrs by flow cytometry. The class given is functional, cell-based. The conditions noted are these: dose 10.0 µg/ml.
In data set [29] the test system is Trypanosoma cruzi. The experiment in a line: Induction of morphological changes in Trypanosoma cruzi trypomastigotes assessed as appearance of loss of cytoplasmic content at IC50 incubated for 24 hrs by SEM analysis. The class given is functional, organism-based.
In data set [30] the test system is Splenocyte. The experiment in a line: Immunomodulatory activity in mouse splenocytes assessed as reduction in IL-6 level at 10 ug/ml incubated for 24 hrs by flow cytometry. The class given is functional, cell-based. The conditions noted are these: dose 10.0 µg/ml.

The source made the active and inactive calls. No cut-off for these calls is given here.

For the compound `C/C(=N\N=C1/NC(=O)C(c2ccccc2)S1)c1cc(Cl)ccc1Cl` (stereo not drawn), the cytotoxic concentration (CC50) – broadly, the concentration at which the toxic effect on the cells reaches its halfway point – at 24 h in data set [1] was ≥ 100 µM. Moreover, the IC50 (as a rule, the concentration that inhibits the measured activity by half) with Trypanosoma cruzi [2] came to 0.84 µM.
`CC1(C)S/C(=N/N=C/c2ccccn2)N(c2ccccc2)C1=O`: it took 146 µM to reach half-maximal cytotoxicity in data set [3] (CC50 at 48 h). The selectivity ratio was found to be 162 in data set [4], 3.5 in data set [5], 15.2 in [22] and 228 in data set [24]. The outcome in the data set with Trypanosoma cruzi [6], in the data set with Trypanosoma cruzi [8], with Trypanosoma cruzi [11], in the data set with Trypanosoma cruzi [12], in the data set with Trypanosoma cruzi [16] and in the data set on Splenocyte [18] was Active. Moreover, the outcome in the data set on Splenocyte [19], in the data set on Splenocyte [21] and in the data set on Trypanosoma cruzi [25] was Active. Moreover, the half-inhibitory concentration (IC50) with Leishmania amazonensis [7] was 42.2 µM; in the data set on Trypanosoma cruzi [15], 0.9 µM; in the data set on Leishmania amazonensis [23], 9.58 µM; in the data set on Trypanosoma cruzi [27], 0.64 µM. Also, the Activity in the data set on Trypanosoma cruzi [9] was found to be 3.66%; in the data set on Trypanosoma cruzi [10] it was 21.53%; in the data set on Trypanosoma cruzi [13] it was 4.4%; with Trypanosoma cruzi [17], 0.18%; in the data set on Trypanosoma cruzi [20], 0.33%; in the data set with Trypanosoma cruzi [26], 21.27%. In addition, the outcome in the data set on Splenocyte [14] was inactive.
In [3], `CC(C)C1S/C(=N/N=C/c2ccccn2)N(c2ccccc2)C1=O` (stereo not drawn) displayed a CC50 at 48 h of 47.4 µM. The selectivity ratio in [4] stood at 46.4; in [5], 0.3; in [22] it was 2.82; in [24], 79. Moreover, the outcome in the data set on Trypanosoma cruzi [6], in the data set with Trypanosoma cruzi [8], in the data set on Trypanosoma cruzi [11], with Trypanosoma cruzi [12], in the data set with Splenocyte [28] and in the data set with Trypanosoma cruzi [16] was Active. Besides, the result in the data set on Splenocyte [18] and with Trypanosoma cruzi [25] was Active. The half-inhibitory concentration (IC50) in the data set with Leishmania amazonensis [7] is 150 µM; in the data set on Trypanosoma cruzi [15], 1 µM; in the data set with Leishmania amazonensis [23], 16.8 µM; with Trypanosoma cruzi [27], 0.6 µM. Also, the Activity was 3.83% with Trypanosoma cruzi [9]; 6.38% in the data set on Trypanosoma cruzi [10]; 4.02% with Trypanosoma cruzi [13]; 0.97% in the data set with Trypanosoma cruzi [17]; 0.13% in the data set on Trypanosoma cruzi [20]; 30.19% in the data set on Trypanosoma cruzi [26]. The outcome in the data set with Splenocyte [14] was inactive.
In turn, `O=C(Cn1ccnc1[N+](=O)[O-])NCc1ccccc1` [BENZNIDAZOLE] yielded a CC50 at 48 h in data set [3] of 124 µM. Also, the selectivity ratio in [4] stood at 8.5; in [24], 19.6. Moreover, the result in the data set on Trypanosoma cruzi [6], in the data set with Trypanosoma cruzi [8], in the data set with Trypanosoma cruzi [29], in the data set with Splenocyte [30] and in the data set with Trypanosoma cruzi [25] was Active. For the same compound, the Activity in the data set on Trypanosoma cruzi [9] is listed as 8.37%; with Trypanosoma cruzi [10], 11.69%; in the data set on Trypanosoma cruzi [13], 22.44%; in the data set on Trypanosoma cruzi [17], 0.88%; in the data set with Trypanosoma cruzi [20], 1.18%; in the data set with Trypanosoma cruzi [26], 12.44%. For the same compound, the 50% inhibitory concentration (IC50) in the data set on Trypanosoma cruzi [27] is 6.3 µM.
For `CCCCCCCCCCCCCCCCOP(=O)([O-])OCC[N+](C)(C)C` [MILTEFOSINE], the selectivity ratio amounted to 8.79 in [5] and 17.5 in [22]. For the same compound, the 50% inhibitory concentration (IC50) with Leishmania amazonensis [7] came to 15.8 µM; with Leishmania amazonensis [23], 7.08 µM. Also, in the data set on Splenocyte [30], the result was Active.
The compound `S=C(N/N=C/c1ccccn1)Nc1ccccc1` returned a half-maximal cytotoxic concentration (CC50) at 48 h in data set [3] of 6.09 µM. The selectivity ratio in data set [4] was 1; in data set [5], 0.51; in data set [22] it was 0.16; in data set [24], 31.2. Also, the result in the data set on Trypanosoma cruzi [6], with Trypanosoma cruzi [8], in the data set on Trypanosoma cruzi [11], with Trypanosoma cruzi [12], with Splenocyte [28] and with Trypanosoma cruzi [16] was Active. For the same compound, the outcome in the data set on Splenocyte [30] and with Trypanosoma cruzi [25] was Active. For the same compound, the IC50 is 11.8 µM with Leishmania amazonensis [7], 6.09 µM in the data set with Trypanosoma cruzi [15], 36.7 µM with Leishmania amazonensis [23] and 0.19 µM with Trypanosoma cruzi [27]. In addition, the Activity is on record as 1.43% in the data set on Trypanosoma cruzi [9]; 6.13% in the data set with Trypanosoma cruzi [10]; 2.9% with Trypanosoma cruzi [13]; 0.07% with Trypanosoma cruzi [17]; 10.3% in the data set with Trypanosoma cruzi [20]; 6.42% in the data set on Trypanosoma cruzi [26]. For the same compound, in the data set with Splenocyte [14], the result was inactive.
For the compound `C/C(=N\NC(N)=S)c1ccncc1`, the half-maximal cytotoxic concentration (CC50) at 48 h in [3] is 464 µM. The selectivity ratio in data set [4] was determined as 2.76; in [5], 4.5; in [22], 0.9; in [24] it was 1.91. Besides, the IC50 with Leishmania amazonensis [7] was 104 µM; with Trypanosoma cruzi [15], 168 µM; in the data set with Leishmania amazonensis [23], 515 µM; in the data set with Trypanosoma cruzi [27], 242 µM.
As to `CNC(=S)N/N=C(\C)c1ccncc1`, half-maximal cytotoxicity in data set [3] (CC50 at 48 h) was put at 567 µM. In addition, the selectivity ratio is 11.1 in data set [4], 2.43 in data set [5], 1.18 in data set [22] and 2.4 in data set [24]. The IC50 in the data set with Leishmania amazonensis [7] was found to be 233 µM; in the data set on Trypanosoma cruzi [15] it was 51.1 µM; in the data set with Leishmania amazonensis [23], 481 µM; in the data set with Trypanosoma cruzi [27], 235 µM.
